Series [1] has as its system Escherichia coli (WP2-uvrA−). Briefly: Bacterial mutagenicity test (Ames assay). The note with it: E. coli WP2-uvrA−, with and without S9. How it is done:
The test article was dissolved in 5% dextrose.
The pH was then adjusted to 3.53.
94720. […] (ATCC numbers: 29629 and 49979, respectively).
Genotype tests were performed.
Both endpoints serve as toxicity indicators in this assay.
A general note: The Ames test detects mutagens through reverse mutation in bacteria.

Series [2] in a line: Pharmacokinetic study in mice, intravenous. Format: in vivo. The following applies: 25 mg/kg intravenous. The text has this: Pharmacokinetic studies for evaluating pharmacokinetic properties of compounds are designed as follows. Male animals (mouse, Balb/c or rat, SD) aged five to six weeks and/or rats weighing more than 200 grams will be used for testing. One group will be untreated and samples taken to be used as a base line. The other three groups will be treated and administered a single dose of compounds by intravenous injection.
Dosing Procedure. Compounds will be administered via IV (lateral tail vein), IP or PO. Animals will be dosed in a systematic order that distributes the time of dosing similarly across all groups. For IP and PO dosing, animals will be manually restrained. For IV bolus dosing or short term IV infusion (one minute), animals will be mechanically restrained but not sedated. Disposable sterile syringes will be used for each animal/dose.
Approximately 0.5 ml of blood will be collected from the naive animals via cardiac puncture prior to the first dose. Terminal blood samples (0.5 ml) will be collected via cardiac puncture from two animals per group per time point according to the above chart. All samples will be placed in tubes containing lithium heparin as anticoagulant and mixed immediately by inverting. They will be centrifuged and the plasma flash frozen in liquid nitrogen, stored at −70° C. or greater and analyzed for drug levels.
A pharmacokinetic study to determine the time course of CX-3543 disposition was conducted in mice following intravenous administered of 25 mg/kg of CX-3543. Regular sampling was undertaken throughout a 24 hour period after IV dose administration, and the key derived pharmacokinetic parameters were derived. FIG. 11 provides the graphical representation of the pharmacokinetic profile of CX-3543 from which key parameters (Table 11) were obtained.
In FIG. 11, Cmax is the maximum CX-3543 plasma concentration attained (expressed in ng/ml); AUC0-inf is the area under the CX-3543 plasma concentration versus time curve, extrapolated from time zero to infinity (expressed in ng.hr/ml); T1/2 is the terminal half life of CX-3543 (expressed in hr); Vdss is the volume of distribution of CX-3543 at steady state (expressed in L/kg); and ClS is the systemic clearance of CX-3543 (expressed in L/hr/kg).

For series [3], the system named is BCl-2 quadruplex (BCL2-97). Kind of series: Direct interaction assay. It counts as binding. An excerpt:
(§1) Direct Interaction Assay. Compounds may be evaluated for their ability to interact directly with nucleic acids capable of forming a quadruplex structure, wherein the nucleic acid is not a telomeric nucleic acid. The assay may be performed in the same or different vessels. For example, a compound may be contacted with each nucleic acid in the same vessel. Alternatively, a compound may be separately contacted with each of the nucleic acids tested in a different vessel. A telomeric nucleic acid as used herein represents a region of highly repetitive nucleic acid at the end of a chromosome. As used herein, a direct interaction is measured without the presence of a competitor nucleic acid.
(§2) An interaction between the compound and the nucleic acid may be determined for example, by measuring IC50 values, which are indicative of the binding and/or quadruplex stabilization. The selectivity of interactions may be determined, for example, by comparing measured IC50 values. For example, the-lowest IC50 values may be used to indicate a strong interaction between the compound and the nucleic acid, while highest IC50 values show a poor interaction; thus, showing selectivity of interaction. The reaction products were characterized by capillary electrophoresis.
(§3) Using a direct interaction assay, CX-3543 was screened for its ability to bind to and/or stabilize different types of quadruplexes. In this example, a 5′-fluorescent-labeled (FAM) primer (P45, 15 nM) is mixed with template DNA (15 nM) in a Tris-HCL buffer (15 mM Tris, pH 7.5) containing 10 mM MgCl2, 0.1 mM EDTA and 0.1 mM mixed deoxynucleotide triphosphates (dNTP's). The mixture is denatured at 95° C. for 5 minutes and, after cooling down to room temperature, is incubated at 37° C. for 15 minutes. After cooling down to room temperature, 1 mM KCl and the test compound at various concentrations are added, and the mixture incubated for 15 minutes at room temperature. The primer extension is performed by adding […] and Taq DNA Polymerase (2.5 U/reaction, Promega), and incubating at 70° C. for 20 minutes.

A further series concerns SRC quadruplex (SRC89). Briefly: Direct interaction assay. It counts as binding.
Source text: as §1, §2, §3

The subject of another series is c-myc quadruplex (MYC99). Kind of series: Direct interaction assay. Format: binding.
Source text: as §1, §2, §3

Series [4] deals with H-RAS quadruplex (HRAS-85). Kind of series: Direct interaction assay. Format: binding.
Source text: as §1, §2, §3

A further series concerns i-motif (IMOTIF99). Kind of series: Direct interaction assay. Format: binding.
Source text: as §1, §2, §3

In series [5] the test system is HMGA-2 quadruplex (HMGA-97). Briefly: Direct interaction assay. Format: binding.
Source text: as §1, §2, §3

Series [6] relates to TGF-β quadruplex (TGFB3-81). Briefly: Direct interaction assay. It counts as binding.
Source text: as §1, §2, §3

Series [7] has as its system Hum Tel quadruplex (Humtel-95). Kind of series: Direct interaction assay. Format: binding.
Source text: as §1, §2, §3

In the next series the test system is PC-3 xenograft. Briefly: PC-3 prostate cancer xenograft model. Format: in vivo, mice. The following applies: 5, 10 and 15 mg/kg i.p. q.o.d., FIG. 9. How it is done: CX-3543 was tested against a number of cancer xenograft models to determine the in vivo efficacy. HCT-116 and PC-3 tumor-bearing nu/nu or MiaPaCa tumor-bearing SCID mice were administered reference and testing compounds on schedules indicated in figure legends. Tumor measurements were taken with calipers every other day or twice a week starting from the first day of dosing and body weights were measured at the same time points. Tumor volumes were calculated from the standard formula, W^2×L/2. c-MYC mRNA expression was measured with QPCR from all tumor samples following the final dose. 18S ribosomal RNA was used as a housekeeper and also quantified with QPCR.

Where [8] appears, read: male, Balb/c, mouse, plasma, iv, 25 mg/kg.

“Also recorded” adds a separate entry of the source.

In general, AUC(0-inf) refers to total exposure, with the tail of the curve extrapolated. A higher AUC(0-inf) goes with more exposure. The Cmax is the highest concentration seen after dosing. Broadly, the half-life is the time needed for the level to fall by half in the phase considered. By IC50 is commonly meant the concentration that inhibits the measured activity by half. The low end stands for greater potency, the high end for weaker potency. For the molecule `CN1CCCC1CCNC(=O)c1cn2c3c(c(N4CCC(c5cnccn5)C4)c(F)cc3c1=O)Oc1cc3ccccc3cc1-2` (centres unmarked) [CX-3543], in [1], the “mutagenicity (reversion rates)” value was “non-mutagenic”. Moreover, the ClS in series [2] was found to be 20.5 mL/min/kg. For the same molecule, the Vd in [2] (male, Balb/c, mouse, plasma, read-out: Vdss) was found to be 7.26 L/kg. The same molecule came in with an AUC(0-inf) in series [2] (setting [8]) of approximately 20300 ng·h/mL. Besides, in [2] (setting [8]), the Cmax is approximately 5350 ng/mL. The molecule also showed a half-life in [2] (setting [8]) of approximately 4.6 h. The interaction with quadruplex entry was “less strongly” in [3] (BCl-2, chair-eller / basket quadruplex); “weakly” in the series on SRC quadruplex (SRC89) (SRC, heptad-tetrad); “strongly” in the series with c-myc quadruplex (MYC99) (c-myc, propeller quadruplex); “strongly” in series [4] (H-RAS, propeller quadruplex); “weakly” in the series on i-motif (IMOTIF99) (i-motif); “weakly” in series [5] (HMGA-2, heptad-tetrad). The interaction with quadruplex entry in series [6] (TGF-β, propeller quadruplex) was “strongly”; in series [7] (Hum Tel, chair-eller / basket quadruplex), “less strongly”. Besides, the IC50 is 2 µM in [3] (insert BCL-2); more than 10 µM with SRC quadruplex (SRC89) (insert SRC); 0.6 µM in the series on c-myc quadruplex (MYC99) (insert c-MYC); 1.1 µM in series [4] (insert H-RAS); more than 10 µM with i-motif (IMOTIF99) (insert I-Motif); more than 10 µM in series [5] (insert HMGA). Further, the IC50 was 1.3 µM in series [6] (insert TGF-β) and 3.3 µM in [7] (insert HumTel). Also, in the series with PC-3 xenograft, the tumor growth inhibition entry is on record as “inhibits tumor growth; also recorded: significant tumor growth inhibition”.

The values are drawn from patent publication US7507727B2, “Substituted quinobenzoxazine analogs and methods of using thereof” (Cylene Pharmaceuticals, Inc., priority 2003, dated 2009).
